Laboratory results as given in patent publication US20140370131A1, “Pharmaceutical Composition for Protecting Brain Neurons Comprising Plumula Nelumbinis Extract as Active Ingredient” (priority 2012, published 2014).

Columns and labels:
[1] = Hydrogen peroxide (H2O2) scavenging activity, ABTS-peroxidase system; conditions: pH 5.0, absorbance at 405 nm
Procedure: Hydrogen peroxide (H2O2) scavenging activity was measured in a 2,2-azinobis(3-ethylbenzthiazolin)-6-sulfonicacid (ABTS)-peroxidase system according to the Muller method. Each sample was diluted at varying concentrations. 80 μL of each sample solution, 20 μL of 10 mM H2O2 and 100 μL of phosphate buffer (pH 5.0, 0.1 M) were added to a 96-well plate and reacted at 37° C. for 5 minutes. Then, 30 μL of 1.25 mM ABTS and 30 μL of 1 U/mL peroxidase were added thereto and reacted at 37° C. for 10 minutes, and the absorbance at 405 nm was measured using an enzyme-linked immunosorbent assay (ELISA) reader.

ICR mice = assay: Morris water maze test, scopolamine-induced memory damage; format: in vivo, mouse; conditions: memory acquisition test for 4 days; scopolamine 1 mg/kg i.p.; test samples oral (extract 3, 10, 30, 100, 200 mg/kg)
Procedure: To observe the cell-protecting effect and cognitive function-improving effect of the Plumula nelumbinis extract in vivo using a Morris water maze test, International Cancer Research (ICR) mice having an average weight of about 30 g were purchased and acclimated to the environment of the laboratory for 1 week before use in the experiment. The animal breeding room was maintained at room temperature (ca. 22±2° C.) with 12 h light (200-300 lux)/12 h dark cycles. The animals had free access to food (i.e., 22.1% or more crude protein, 8.0% or less crude fat, 0.6% or more calcium, and 0.4% or more phosphorus; Samyang Corp., Korea) and water. The animals were divided into a control group administered with the same amount of injectable saline without scopolamine (Sigma Aldrich), and a group administered with scopolamine. The group administered with scopolamine was treated with 3, 10, 30, 100 and 200 mg/kg of a 80% methanol extract of Plumula nelumbinis. As a positive control, donepezil was used, which is a cholinesterase inhibitor-based drug approved by the FDA, and is used for the treatment of mild, moderate, or severe Alzheimer's disease and for the alleviation of vascular dementia (i.e., dementia involving cerebrovascular disease).
Each of the test samples and the positive control drug was suspended in injectable sterile water and administered at a unit dose of 10 ml/kg. Scopolamine (1 mg/kg) was administered intraperitoneally each day for 4 days, and the test sample and the positive control drug were administered orally (FIGS. 8A and 8B).
In the water maze test, a learning trial was performed on the day before administration of the extract, and then a memory acquisition test was repeated for 4 days. In the learning trial, each test animal was placed into a water pool ([…]) at one of four release points and allowed to find a platform ([…]) by swimming for 60 seconds. […]
During the memory acquisition test, 1 mg/kg of scopolamine was administered intraperitoneally once a day for 4 days at 60 minutes after administration of the Plumula nelumbinis extract. […] The cognitive ability-improving effect was evaluated by measuring the average swimming time (sec) taken for the test animal to find the platform (sec).
After the learning trial for 1 day, scopolamine was administered to cause damage to cognitive function (memory), and the Moths water maze test was performed to examine the cognitive function-improving effect of the extract. In the memory acquisition test performed over 4 days, the cognitive function-improving effect of the extract was evaluated based on a decrease in each of the average swimming times taken to find the platform and the swimming distance. […]

[2] = DPPH radical scavenging activity; conditions: 30 minutes in the dark, absorbance at 517 nm
Procedure: The test sample was weighed, dissolved in methanol or ethanol, and then filtered through a 0.45-μm filter. The prepared sample was serially diluted. Varying concentrations of 150 μl of each diluted sample were added to a 96-well micro plate, followed by addition of DPPH. The 96-well micro plate was placed in a dark room and allowed to stand for 30 minutes. The absorbance at 517 nm was measured.

Structure (SMILES): COc1ccc(O)c(C(C)(C)C)c1 [butylated hydroxy anisole (BHA), butylated hydroxy anisole]
- hydrogen peroxide (H2O2) scavenging IC50 [1]: 160.58 µg/mL

Structure (SMILES): COc1cc2c(cc1OC)C(=O)C(CC1CCN(Cc3ccccc3)CC1)C2 (stereo not drawn) [donepezil]
- average swimming distance (ICR mice): gradual decreases
- average swimming time taken to find the platform (ICR mice): gradual decreases

Structure (SMILES): CN1[C@@H]2C[C@@H](OC(=O)[C@H](CO)c3ccccc3)C[C@H]1[C@@H]1O[C@@H]12 [scopolamine]
- average swimming distance (ICR mice): increased rather than decreased
- average swimming time taken to find the platform (ICR mice): increased rather than decreased

Structure (SMILES): O=C1O[C@H]([C@@H](O)CO)C(O)=C1O [vitamin C, ascorbic acid]
- DPPH radical scavenging IC50 [2]: 27.73 µg/mL
